Where a name gives a salt, the structure may show the parent alone.
Tests used:
[1] = target: 72 kDa type IV collagenase (Pig, UniProt Q95JA4); assay: MMP-2 Inhibition Assay
Protocol: Gelatinase A (MMP-2) and TNBS were purchased from Sigma, and the substance was synthesized as described by Vijaykumar et al. The gelatinase, substance, and inhibitor were dissolved in sodium borate (pH8.5, 50 mmol/L) and incubated for 30 min at 37 °C, and then 0.03 % TNBS was added and incubated for another 20 min, the resulting solution was detected under 450 nm wavelength to gain absorption.

Aminopeptidase N = target: T1, Aminopeptidase N (Sus scrofa, UniProt P15145); assay: APN Inhibition Assay; conditions: pH 7.5; 25 °C
T1 sequence (P15145 whole entry): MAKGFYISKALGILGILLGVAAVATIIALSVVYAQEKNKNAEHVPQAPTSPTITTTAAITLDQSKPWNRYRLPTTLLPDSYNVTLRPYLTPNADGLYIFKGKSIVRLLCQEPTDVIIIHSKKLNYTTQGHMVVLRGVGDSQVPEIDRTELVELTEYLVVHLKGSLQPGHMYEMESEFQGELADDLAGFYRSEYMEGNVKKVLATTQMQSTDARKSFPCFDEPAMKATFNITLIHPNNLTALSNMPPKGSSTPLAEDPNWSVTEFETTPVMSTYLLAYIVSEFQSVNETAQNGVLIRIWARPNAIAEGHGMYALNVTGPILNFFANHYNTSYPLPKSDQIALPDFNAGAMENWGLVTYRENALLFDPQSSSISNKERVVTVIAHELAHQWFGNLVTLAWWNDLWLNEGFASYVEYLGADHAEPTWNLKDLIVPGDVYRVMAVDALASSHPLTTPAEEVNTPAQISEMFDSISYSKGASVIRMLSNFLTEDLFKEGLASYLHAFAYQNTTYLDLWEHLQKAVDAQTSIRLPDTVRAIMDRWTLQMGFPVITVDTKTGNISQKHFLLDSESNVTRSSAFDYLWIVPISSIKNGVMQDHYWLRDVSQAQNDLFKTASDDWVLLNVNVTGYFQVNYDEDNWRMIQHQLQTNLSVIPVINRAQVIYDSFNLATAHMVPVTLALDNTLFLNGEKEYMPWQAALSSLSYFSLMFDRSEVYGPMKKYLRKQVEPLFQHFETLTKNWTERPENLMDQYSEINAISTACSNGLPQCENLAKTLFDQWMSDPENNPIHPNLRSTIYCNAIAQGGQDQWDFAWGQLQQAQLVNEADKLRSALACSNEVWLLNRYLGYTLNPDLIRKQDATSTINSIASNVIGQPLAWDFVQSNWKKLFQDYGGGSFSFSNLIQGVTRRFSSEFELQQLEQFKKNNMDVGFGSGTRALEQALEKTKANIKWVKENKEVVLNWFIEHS
Protocol: IC50 values against APN from Porcine Kidney were determined by using L-Leu-p-nitroanilide as a substrate. All the solutions of the inhibitors were prepared in the assay buffer( pH 7.5). All the inhibitors were preincubated with APN for 5 min at room temperature. The assay mixture, which contained the inhibitor solution (concentration dependent on the inhibitor), the enzyme solution (4 mg/mL final concentration), and the assay buffer, was adjusted to 200 μL, and then incubated at 37 ℃ for 30 min.

Chain of 72 kDa type IV collagenase (Q95JA4 whole entry): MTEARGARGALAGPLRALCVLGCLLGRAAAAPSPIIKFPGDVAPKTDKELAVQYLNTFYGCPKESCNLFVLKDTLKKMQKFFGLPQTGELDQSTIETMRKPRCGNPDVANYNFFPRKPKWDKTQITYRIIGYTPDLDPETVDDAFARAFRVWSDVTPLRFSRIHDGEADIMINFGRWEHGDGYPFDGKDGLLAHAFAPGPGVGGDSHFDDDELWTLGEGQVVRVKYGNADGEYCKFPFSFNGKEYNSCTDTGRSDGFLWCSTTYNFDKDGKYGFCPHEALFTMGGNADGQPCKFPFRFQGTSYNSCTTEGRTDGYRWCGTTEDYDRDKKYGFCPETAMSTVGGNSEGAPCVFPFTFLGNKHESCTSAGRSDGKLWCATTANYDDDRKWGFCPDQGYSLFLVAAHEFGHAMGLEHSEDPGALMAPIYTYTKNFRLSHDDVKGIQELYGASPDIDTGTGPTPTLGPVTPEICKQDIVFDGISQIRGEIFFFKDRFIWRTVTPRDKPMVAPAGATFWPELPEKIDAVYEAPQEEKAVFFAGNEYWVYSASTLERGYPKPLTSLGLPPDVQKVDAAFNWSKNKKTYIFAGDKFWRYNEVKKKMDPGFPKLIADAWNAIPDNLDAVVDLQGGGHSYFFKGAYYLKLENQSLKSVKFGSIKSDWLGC

In the case of `CC(C)C[C@H](NC(=O)[C@@H](O)[C@H](N)Cc1ccccc1)C(=O)O`, the IC50 [1] is reported as 163 µM.
Compound `N[C@@H](c1ccccc1)[C@@H](O)C(=O)N[C@@H](Cc1ccccc1)C(=O)NO` [(2R,3S)-3-amino-2-hydroxy-N-((S)-1-(hydroxyamino)-1-oxo-3-phenylpropan-2-yl)-3-phenylpropanamide hydrochloride (7f)] has an IC50 [1] of 249 µM and an IC50 (Aminopeptidase N) of 44 µM.
Compound `C[C@H](NC(=O)[C@H](O)[C@@H](N)c1ccccc1)C(=O)NO` [(2R,3S)-3-amino-2-hydroxy-N-((S)-1-(hydroxyamino)-1-oxopropan-2-yl)-3-phenylpropanamide hydrochloride (7c)] has an IC50 [1] of 292 µM.
Compound `N[C@@H](c1ccccc1)[C@@H](O)C(=O)N[C@@H](Cc1ccc(O)cc1)C(=O)NO` [(2R,3S)-3-amino-2-hydroxy-N-((S)-1-(hydroxyamino)-3-(4-hydroxyphenyl)-1-oxopropan-2-yl)-3-phenylpropanamide hydrochloride (7g)] has an IC50 [1] of 299 µM and an IC50 (Aminopeptidase N) of 173 µM.
Compound `N[C@@H](c1ccccc1)[C@@H](O)C(=O)N[C@H](C(=O)NO)c1ccccc1` [(2R,3S)-3-amino-2-hydroxy-N-((S)-2-(hydroxyamino)-2-oxo-1-phenylethyl)-3-phenylpropanamide hydrochloride (7e)] has an IC50 [1] of 213 µM and an IC50 (Aminopeptidase N) of 1.26 µM.
With `N[C@@H](c1ccccc1)[C@@H](O)C(=O)N[C@@H](CO)C(=O)NO` [(2R,3S)-3-amino-2-hydroxy-N-((S)-3-hydroxy-1-(hydroxyamino)-1-oxopropan-2-yl)-3-phenylpropanamide hydrochloride (7h)] the IC50 [1] was 292 µM and the IC50 (Aminopeptidase N) was 158 µM.
For `CCC(C)[C@H](NC(=O)[C@H](O)[C@@H](N)c1ccccc1)C(=O)O` (stereo partly drawn) [(2S)-2-((2R,3S)-3-amino-2-hydroxy-3-phenylpropanamido)-3-methylpentanoic acid hydrochloride (5d)], the IC50 [1] was 264 µM.
With `CCC(C)[C@H](NC(=O)[C@H](O)[C@@H](N)c1ccccc1)C(=O)NO` (stereo partly drawn) [(2S)-2-((2R,3S)-3-amino-2-hydroxy-3-phenylpropanamido)-N-hydroxy-3-methylpentanamide hydrochloride (7d)] the IC50 [1] was 207 µM and the IC50 (Aminopeptidase N) was 82.9 µM.
For `N[C@@H](c1ccccc1)[C@@H](O)C(=O)N[C@H](C(=O)O)c1ccccc1` [(S)-2-((2R,3S)-3-amino-2-hydroxy-3-phenylpropanamido)-2-phenylacetic acid hydrochloride (5e)], the IC50 [1] was 254 µM and the IC50 (Aminopeptidase N) was 198 µM.
`N[C@@H](c1ccccc1)[C@@H](O)C(=O)N[C@@H](Cc1ccc(O)cc1)C(=O)O` [(S)-2-((2R,3S)-3-amino-2-hydroxy-3-phenylpropanamido)-3-(4-hydroxyphenyl) propanoic acid hydrochloride (5g)] gave an IC50 [1] of 407 µM.
Work on `N[C@@H](c1ccccc1)[C@@H](O)C(=O)N[C@@H](CO)C(=O)O` [(S)-2-((2R,3S)-3-amino-2-hydroxy-3-phenylpropanamido)-3-hydroxypropanoic acid hydrochloride (5h)] yielded an IC50 [1] of 562 µM.
Compound `CC(C)[C@H](NC(=O)[C@H](O)[C@@H](N)c1ccccc1)C(=O)O` [(S)-2-((2R,3S)-3-amino-2-hydroxy-3-phenylpropanamido)-3-methylbutanoic acid hydrochloride (5b)] has an IC50 [1] of 287 µM.
Work on `N[C@@H](c1ccccc1)[C@@H](O)C(=O)N[C@@H](Cc1ccccc1)C(=O)O` [(S)-2-((2R,3S)-3-amino-2-hydroxy-3-phenylpropanamido)-3-phenylpropanoic acid hydrochloride (5f)] yielded an IC50 [1] of 497 µM.
`Cc1ccccc1NC(=O)[C@H](CC(C)C)NC(=O)[C@H](O)[C@@H](N)c1ccccc1` [(S)-2-((2R,3S)-3-amino-2-hydroxy-3-phenylpropanamido)-4-methyl-N-o-tolylpentanamide hydrochloride (9b)] showed an IC50 (Aminopeptidase N) of 363 µM.
Work on `CC(C)C[C@H](NC(=O)[C@H](O)[C@@H](N)c1ccccc1)C(=O)O` [(S)-2-((2R,3S)-3-amino-2-hydroxy-3-phenylpropanamido)-4-methylpentanoic acid hydrochloride (5a)] yielded an IC50 [1] of 215 µM and an IC50 (Aminopeptidase N) of 352 µM.
`CC(C)[C@H](NC(=O)[C@H](O)[C@@H](N)c1ccccc1)C(=O)NO` [(S)-2-((2R,3S)-3-amino-2-hydroxy-3-phenylpropanamido)-N-hydroxy-3-methylbutanamide hydrochloride (7b)] was tested, and the IC50 [1] was 128 µM and the IC50 (Aminopeptidase N) was 76.9 µM.
`CC(C)C[C@H](NC(=O)[C@H](O)[C@@H](N)c1ccccc1)C(=O)NO` [(S)-2-((2R,3S)-3-amino-2-hydroxy-3-phenylpropanamido)-N-hydroxy-4-methylpentanamide hydrochloride (7a)] gave an IC50 [1] of 64.6 µM and an IC50 (Aminopeptidase N) of 56.7 µM.
`C[C@H](NC(=O)[C@H](O)[C@@H](N)c1ccccc1)C(=O)O` [(S)-2-((2R,3S)-3-amino-2-hydroxy-3-phenylpropanamido)propanoic acid hydrochloride (5c)] was tested, and the IC50 [1] was 273 µM and the IC50 (Aminopeptidase N) was 342 µM.
`CC(C)C[C@H](NC(=O)[C@H](Cc1ccccc1)NC(=O)[C@H](O)[C@@H](N)c1ccccc1)C(=O)O` [(S)-2-((S)-2-((2R,3S)-3-amino-2-hydroxy-3-phenylpropanamido)-3-phenylpropanamido)-4-methylpentanoic acid hydrochloride (5n)] gave an IC50 (Aminopeptidase N) of 105 µM.
`CC(C)C[C@H](NC(=O)[C@H](O)[C@@H](N)c1ccccc1)C(=O)NC(C(=O)O)c1ccccc1` (stereo partly drawn) [(S)-2-((S)-2-((2R,3S)-3-amino-2-hydroxy-3-phenylpropanamido)-4-methylpentanamido)-2-phenylacetic acid hydrochloride (5k)] was tested, and the IC50 [1] was 186 µM.
In the case of `CC(C)C[C@H](NC(=O)[C@H](O)[C@@H](N)c1ccccc1)C(=O)N[C@H](C(=O)O)C(C)C` [(S)-2-((S)-2-((2R,3S)-3-amino-2-hydroxy-3-phenylpropanamido)-4-methylpentanamido)-3-methylbutanoic acid hydrochloride (5i)], the IC50 [1] is reported as 690 µM and the IC50 (Aminopeptidase N) is reported as 590 µM.
`CC(C)C[C@H](NC(=O)[C@H](CC(C)C)NC(=O)[C@H](O)[C@@H](N)c1ccccc1)C(=O)O` [(S)-2-((S)-2-((2R,3S)-3-amino-2-hydroxy-3-phenylpropanamido)-4-methylpentanamido)-4-methylpentanoic acid hydrochloride (5j)] was tested, and the IC50 [1] was 424 µM and the IC50 (Aminopeptidase N) was 513 µM.
